Measured values published in patent US6727240B1, “Methods for preventing HIV-1 or HIV-2 infection” (New York Blood Center, Inc., priority 1993, dated 2004).

What was measured:
MT-2 cells = assay: Cytotoxic effect in the absence of HIV-1 (lysis of uninfected cells); assay type: cell-based
[1] = test system: deletion mutant of gp120 lacking the V3 loop sequence; assay: Binding of CD4-binding-site mAbs to gp120 deletion mutant; set-up: species or system HIV-1
[2] = target: T1, CD4 binding site of gp120 (recombinant gp120) (Human immunodeficiency virus type 1 group M subtype B, UniProt P03375); assay: ELISA: binding of mAb 588D to gp120-coated wells; set-up: species or system HIV-1; conditions: mAb 588D 200 ng/well; FIG. 3
T1 construct: recombinant gp120 produced insect cells infected with a baculovirus vector; host or cells: insect cells infected with a baculovirus vector
Protocol: (§1) The inhibitory effect of PTP-IX and its metal derivatives on binding to gp120 of monoclonal antibodies (mAbs) specific for the V3 loop or for the CD4 binding site was measured by ELISA tests using as second antibodies horseradish peroxidase (HRP) labeled anti-mouse IgG.
The inhibitory effect of Sn-PTP-IX on the reaction between gp120 and mAb specific for the CD4 binding site on gp120 was also investigated. For this purpose, mAb 588D (obtained from the AIDS Research and Reagent Reference Program and from Dr. S. Zolla-Pazner of New York Veterans Affairs Medical Center) was used.
(§2) The inhibitory effect of PTP-IX and its metal complexes on the reaction between antibodies of distinct specificities and gp120 (or synthetic peptides derived from it) was calculated by the following formula: [formula]

[3] = test system: V3 hypervariable loop peptides from gp120 from 21 distinct HIV-1 isolates; assay: ELISA: reaction of V3 hypervariable loop peptides with homologous anti-peptide antisera; assay type: binding; conditions: rabbit antisera diluted 1:1,000; FIG. 2
Protocol: as §1
Sn-PTP-IX was also tested for inhibition of the reaction between V3 hypervariable loop peptides from 21 distinct HIV-1 isolates and the corresponding homologous antipeptide antibodies. […] With respect of FIG. 2, peptide coated wells of polystyrene plates were reacted in the presence and absence of the porphyrin derivative with the respective rabbit antisera diluted 1:1,000, and the attachment of rabbit IgG was subsequently determined using horseradish peroxidase labeled anti-rabbit IgG.
as §2

[4] = versus Sn-PTP-IX; cited from earlier work

| Molecule | CD50 = concentration at which 50% of uninfected cells were lysed (MT-2 cells) [µg/mL] | S.I. = selectivity index = CD50/ED50 (toxicity/activity) (HIV-1) | also measured |
| --- | --- | --- | --- |
| C=Cc1c2[n-]c(c1C)/C=c1\[n-]/c(c(C)c1C=C)=C\c1[n-]c(c(CCC(=O)O)c1C)C=c1[n-]/c(c(C)c1CCC(=O)O)=C\2.[Sn+4] [Sn-Protoporphyrin IX, tin protoporphyrin IX] | 18.0 | 33.5 | Inhibition of binding of CD4-binding-site mAbs to gp120 lacking the V3 loop [1]: not observed; Inhibition of HIV-1 infection (in words) (HIV-1; compared with metal-free PTP-IX): effectively inhibited HIV-1 infection at considerably lower concentrations than did metal-free PTP-IX; Inhibition of binding of mAb 588D to gp120 [2]: blocked in a concentration dependent manner; Inhibition of the reaction between V3 loop peptides and homologous antibodies [3]: inhibited |
| tin mesoporphyrin IX [Sn-Mesoporphyrin IX] | >20 | >5.6 |  |
| C=Cc1c(C)c2cc3[nH]c(cc4nc(cc5nc(cc1[nH]2)C(C)=C5CCC(=O)[O-])C(CCC(=O)[O-])=C4C)c(C)c3C=C.[Co+2] [Co-Protoporphyrin IX] |  | >6.2 |  |
| C=CC1=C(C)c2cc3[n-]c(cc4[n-]c(cc5nc(cc1n2)C(C)=C5C=C)c(C)c4CCC(=O)O)c(CCC(=O)O)c3C.[Zn+2] [Zn-Protoporphyrin IX] |  | >3.1 | ED50 values relative to Sn-PTP-IX (times higher) [4]: approximately 50 times |
| C=CC1=C(C)c2cc3[nH]c(cc4nc(cc5[nH]c(cc1n2)c(C)c5CCC(=O)O)C(CCC(=O)O)=C4C)c(C)c3C=C [Protoporphyrin IX] |  | 7.3 |  |
| C=CC1=C(C)c2cc3[n-]c(cc4[n-]c(cc5nc(cc1n2)C(C)=C5C=C)c(C)c4CCC(=O)O)c(CCC(=O)O)c3C.[Mn+2] [Mn-Protoporphyrin IX] | >80 | >2.8 |  |
